Measurements published in PubChem BioAssay (NCI).
“And” between values parts separate entries of the source, which are not always exact repeats. Equal entries are not always repeated.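 Results reflect a 48-hour exposure of cells in 96-well plates to compound at five concentrations. At the GI50, growth is halved. TGI marks complete inhibition of growth.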

Legend:
Assay in all cases: NCI tumour cell line growth inhibition, 48 h
HCC-2998 colon = system: HCC-2998 colon
COLO 205 colon = system: COLO 205 colon
A498 renal = system: A498 renal
SK-MEL-28 melanoma = system: SK-MEL-28 melanoma
NCI-H522 lung = system: NCI-H522 lung
ACHN renal = system: ACHN renal
SR leukemia = system: SR leukemia
NCI-H460 lung = system: NCI-H460 lung

SMILES	TGI (HCC-2998 colon)	TGI (COLO 205 colon)	TGI (A498 renal)	TGI (SK-MEL-28 melanoma)	TGI (NCI-H522 lung)	TGI (ACHN renal)	TGI (SR leukemia)	TGI (NCI-H460 lung)	GI50 (HCC-2998 colon)	GI50 (COLO 205 colon)	GI50 (A498 renal)	GI50 (SK-MEL-28 melanoma)	GI50 (NCI-H522 lung)	GI50 (ACHN renal)	GI50 (SR leukemia)	GI50 (NCI-H460 lung)
CN(CC(=O)O)c1ccc(/C=C/c2ccnc3ccccc23)cc1	53000 nM	34300 nM	47100 nM	> 100000 nM	26500 nM	> 100000 nM	33700 nM	67100 nM								
COc1ccc(-c2nnc(SCC(=O)Nc3ccc(/C(C)=N\O)cc3)n2-c2ccccc2)cc1OC	> 100000 nM	> 100000 nM	46100 nM	> 100000 nM	> 100000 nM	> 100000 nM	> 100000 nM	> 100000 nM	> 100000 nM	> 100000 nM	2720 nM	> 100000 nM	21400 nM	8080 nM	> 100000 nM	> 100000 nM
COC1(O)C(=O)c2ccccc2OC1(OC)c1ccccc1 (stereo unspecified)	> 100000 nM	> 100000 nM	> 100000 nM	> 100000 nM	> 100000 nM	> 100000 nM	> 100000 nM	> 100000 nM								
O=C1/C(=C/c2ccccc2F)CNC/C1=C\c1ccccc1F	2380 nM and 1160 nM	2570 nM and 1820 nM	978 nM and 2980 nM	4700 nM and 3630 nM	2730 nM and 2800 nM	8550 nM and 2580 nM	361 nM and 813 nM	3290 nM and 3300 nM	1130 nM and 359 nM	820 nM and 584 nM	194 nM and 1520 nM	2020 nM and 1790 nM	772 nM and 1300 nM	4860 nM and 779 nM	77.2 nM and 245 nM	693 nM and 458 nM
COc1ccc(-c2cnnn2-c2cc(OC)c3c(c2)OCO3)cc1		520 nM	633 nM	> 100000 nM	525 nM	> 100000 nM	> 51700 nM	> 29200 nM	307 nM	57.8 nM	44.4 nM	580 nM	35.4 nM	891 nM	46.6 nM	72.8 nM
C/C(=C\c1ccn(-c2ccc(N)c(F)c2)n1)[C@@H]1C[C@@H]2O[C@]2(C)CCC[C@H](C)[C@H](O)[C@@H](C)C(=O)C(C)(C)[C@@H](O)CC(=O)O1	> 50000 nM	128 nM	267 nM	> 50000 nM	32.1 nM	> 50000 nM	> 50000 nM	> 50000 nM	28.7 nM	8.45 nM	< 5 nM	7030 nM	9.73 nM	234 nM	9.15 nM	9.38 nM
O=C1CC(c2ccc3c(c2)OCO3)Nc2cc3c(cc21)OCO3 (stereo unspecified)	11000 nM	885 nM	862 nM		16800 nM	> 100000 nM	12400 nM	13000 nM	694 nM	282 nM	169 nM		551 nM	2050 nM	266 nM	353 nM
COC(C(=O)C(O)C(C)O)C1Cc2cc3cc(OC4CC(OC(C)=O)C(OC5CC(O)C(OC)C(C)O5)C(C)O4)cc(O)c3c(O)c2C(=O)C1OC1CC(OC2CC(OC3CC(C)(O)C(OC(=O)C(C)C)C(C)O3)C(O)C(C)O2)C(O)C(C)O1 (stereo unspecified)						198 nM	385 nM				154 nM and 24.8 nM	0.911 nM and 1.46 nM	0.196 nM			26.1 nM and 11.3 nM and 3.05 nM
c1cc(CCN2CCCCC2)ccn1		> 100000 nM	> 100000 nM	> 100000 nM	> 100000 nM	> 100000 nM	> 100000 nM	> 100000 nM								
